From patent US20200325239A1, “Modulation of Aminopeptidase N/CD13 and Rheumatoid Arthritis” (THE REGENTS OF THE UNIVERSITY OF MICHIGAN, priority 2016, published 2020)

Key:
Assay type in all cases: cell-based, human
RA FLS [1] = test: FLS scratch-wound migration assay (relative wound density); conditions: antibodies 25 or 50 ng/ml; actinonin 10 μM, bestatin 50 μM; primarily from 36 hours to 72 hours
Experimental: (§1) FIG. 5. […] FLS were seeded on 96-well plates overnight. An Essen Incucyte system was used for both growth (A) and migration (B) assays. Growth was calculated as the difference in percent confluence from time 0. Migration was measured in a scratch-wound assay using relative wound density. All data are expressed as a ratio to untreated FLS of the same cell line. mean±SEM n≥4 (*p≤0.05).
RA FLS were seeded on Essen Image Lock 96-well plates (Essen Bioscience, Ann Arbor, Mich.) overnight at either 3,000 cells/well for growth or 30,000 cells/well for migration. For growth, the 20% FBS CMRL media was removed and cells were washed 1× with PBS. 100 μl of medium alone (control) or medium containing anti-CD3 (25 or 50 ng/ml, OKT3, used as a non-reactive isotype control antibody in this experiment), anti-CD13 1D7 or WM15 (Biolegend, San Diego, Calif.) (25 or 50 ng/ml), or CD13 chemical inhibitors actinonin (Sigma-Aldrich, St. Louis, Mo.) or bestatin (Sigma-Aldrich, St. Louis, Mo.) (10 μM and 50 μM, respectively) was added to the wells. Images and confluence data were collected using an Essen IncuCyte (Essen Bioscience, Ann Arbor, Mich.). For the scratch-wound migration assay, wounds were made via the Essen scratch-wound tool in the seeded 96-well plate. […] Data were collected and the confluence or relative wound density calculated by the Essen IncuCyte.

RA FLS [2] = test: FLS growth assay (Essen IncuCyte, percent confluence); conditions: antibodies 25 or 50 ng/ml, actinonin 10 μM, bestatin 50 μM, primarily between 24 hours and 120 hours
Experimental: as §1
RA FLS were seeded on Essen Image Lock 96-well plates (Essen Bioscience, Ann Arbor, Mich.) overnight at either 3,000 cells/well for growth or 30,000 cells/well for migration. For growth, the 20% FBS CMRL media was removed and cells were washed 1× with PBS. 100 μl of medium alone (control) or medium containing anti-CD3 (25 or 50 ng/ml, OKT3, used as a non-reactive isotype control antibody in this experiment), anti-CD13 1D7 or WM15 (Biolegend, San Diego, Calif.) (25 or 50 ng/ml), or CD13 chemical inhibitors actinonin (Sigma-Aldrich, St. Louis, Mo.) or bestatin (Sigma-Aldrich, St. Louis, Mo.) (10 μM and 50 μM, respectively) was added to the wells. Images and confluence data were collected using an Essen IncuCyte (Essen Bioscience, Ann Arbor, Mich.). For the scratch-wound migration assay, wounds were made via the Essen scratch-wound tool in the seeded 96-well plate. Plates were then washed 2× with PBS and medium was added similar to the growth plates. Data were collected and the confluence or relative wound density calculated by the Essen IncuCyte.

FLS = test: CD13 release and cellular CD13 after siRNA knockdown with or without GM6001 (CD13 ELISA); conditions: 25 μM GM6001, 48 hours
Experimental: FLS were grown to confluence, then transfected with siRNA using an Amaxa nucleofector kit. Cells were grown to 75% confluence, then switched to serum-free growth media (Peprogrow) supplemented with 1 ng/ml IL-1 and 10 ng/ml TNFα for 48 hours with or without 25 μM GM6001.
High-binding ELISA plates were coated with the anti-CD13 monoclonal antibody WM15 (Biolegend, San Diego, Calif.) in 0.1M carbonate buffer pH 9.5 overnight, and then blocked with 1× Animal Free Block (Vector Laboratories, Burlingame, Calif.) overnight. Samples were then applied to the plates either whole or diluted in block with 10 mM EDTA. A standard curve was prepared using recombinant human CD13 (R&D Systems, Minneapolis, Minn.) in block with 10 mM EDTA. […] The plates were visualized with TMB substrate (BD Biosciences, San Jose, Calif.), stopped with 2M H2SO4, and analyzed on a colorimetric plate reader.
FLS were transfected by electroporation using an Amaxa Nucleofector and the nucleofector kit for dermal fibroblasts (NHDF, Lonza, Basel, Switzerland). […] Transfection of GFP control plasmid was measured by fluorescent microscopy (EVOSfl, AMG, Mill Creek, Wash.) and flow cytometry (BD Biosciences FACSCalibur, San Jose, Calif.). Knockdown efficiency was measured by qRT-PCR of MMP14 mRNA at the time of harvest for CD13 measurements. […]

RA FLS [3] = test: CD13 shedding from FLS cultures with protease inhibitors (CD13 ELISA of supernatant and cell lysate); conditions: 48 hours
Experimental: Fibroblast-like synoviocytes (FLS) were cultured from human synovial tissue obtained at arthroplasty or synovectomy from RA joints by digestion with 1% collagenase and separation through a 7004 cell strainer (16). […] FLS were maintained in Connaught Medical Research Laboratory (CARL) medium (20% fetal bovine serum (FBS), 2 mM L-glutamine, and 1% penicillin/streptomycin), and were used between passages 4 and 10. To avoid the confounding effect of serum CD13, cultures were moved to serum-free Dulbecco's Modified Eagle's medium/F-12 with Peprogrow serum replacement (Peprotech, Rocky Hill, N.J.) before harvesting. Some cultures were treated with protease inhibitors for 48 hours in serum-free medium: pepstatin A (Sigma-Aldrich, St. Louis, Mo.), aprotinin (Sigma-Aldrich, St. Louis, Mo.), leupeptin (Sigma-Aldrich, St. Louis, Mo.), GM6001 InSolution (EMD Millipore, Darmstadt, Germany), or E-64 (Thermo Scientific, Waltham, Mass.).
Cells were lysed in cell lysis buffer (10% NP-40, 10% PMSF, 1% Iodoacetamide, and 0.1% E-64 in TSA) for one hour on ice and spun to remove debris. FLS culture supernatants were concentrated by centrifugation through an Amicon Ultracel 30K filter (EMD Millipore, Darmstadt, Germany).
High-binding ELISA plates were coated with the anti-CD13 monoclonal antibody WM15 (Biolegend, San Diego, Calif.) in 0.1M carbonate buffer pH 9.5 overnight, and then blocked with 1× Animal Free Block (Vector Laboratories, Burlingame, Calif.) overnight. Samples were then applied to the plates either whole or diluted in block with 10 mM EDTA. A standard curve was prepared using recombinant human CD13 (R&D Systems, Minneapolis, Minn.) in block with 10 mM EDTA. 1D7 (i.e., 591.1D7.34, University of Michigan Hybridoma Core), an anti-CD13 monoclonal antibody that was recently described (10), was biotinylated (Biotin-XX Microscale Protein Labeling Kit, Life Technologies, Carlsbad, Calif.) and applied overnight (19). Streptavidin-HRP (Biolegend, San Diego, Calif.) was then added. Between steps, plates were washed with PBS plus 0.05% Tween. The plates were visualized with TMB substrate (BD Biosciences, San Jose, Calif.), stopped with 2M H2SO4, and analyzed on a colorimetric plate reader.
To test this mechanism, various protease inhibitors were added to FLS cultures, including: pepstatin A (aspartic), aprotinin (serine), leupeptin (serine/cysteine), GM6001 (metalloproteinase), and E-64 (cysteine). […] All inhibitors were used at established working concentrations.

CD13 mRNA = test: Regulation of CD13 mRNA in RA FLS by cytokines (qRT-PCR); conditions: time course 0 to 72 hours; for CD13 mRNA in RA FLS, ratio to untreated FLS (in words): IFNγ 1000 U/ml, TNFα 10 ng/ml, IL-17 10 ng/ml
Experimental: FIG. 4. […] FLS were stimulated over a time course of 0-72 hours with IFNγ (1000 U/ml), TNFα (10 ng/ml), or IL-17 (10 ng/ml). Cells were harvested and processed for either mRNA (A), surface expression (B), total cell lysate CD13 (C), or total CD13 in supernatant (D). mRNA was measured by qRT-PCR. CD13 was measured on the surface with anti-CD13 (1D7) and flow cytometry. Cell lysate and supernatant CD13 concentrations were measured by CD13 ELISA. Gating was done to isolate the major cell population and exclude debris and dead cells. Data is expressed as a ratio to unstimulated FLS at the same time point in either ΔΔCt normalized to GAPD (mRNA), mean fluorescent intensity corrected for background florescence with MsIg staining (surface), or CD13 concentration in lysate or supernatant. A n=3 B-D n=1 *p≤0.05.
All procedures involving specimens obtained from human subjects were performed under a protocol approved by the University of Michigan Institutional Review Board. Fibroblast-like synoviocytes (FLS) were cultured from human synovial tissue obtained at arthroplasty or synovectomy from RA joints by digestion with 1% collagenase and separation through a […] (16). FLS were uniformly positive for the FLS marker Cadherin-11. The diagnosis of RA required at least four of the seven 1987 American College of Rheumatology criteria (17). FLS were maintained in Connaught Medical Research Laboratory ([…]) medium (20% fetal bovine serum (FBS), 2 mM L-glutamine, and 1% penicillin/streptomycin), and were used between passages 4 and 10. To avoid the confounding effect of serum CD13, cultures were moved to serum-free Dulbecco's Modified Eagle's medium/F-12 with Peprogrow serum replacement (Peprotech, Rocky Hill, N.J.) before harvesting. Some cultures were treated with protease inhibitors for 48 hours in serum-free medium: pepstatin A (Sigma-Aldrich, St. Louis, Mo.), aprotinin (Sigma-Aldrich, St. Louis, Mo.), leupeptin (Sigma-Aldrich, St. Louis, Mo.), GM6001 InSolution (EMD Millipore, Darmstadt, Germany), or E-64 (Thermo Scientific, Waltham, Mass.). Other cultures were treated with cytokines: recombinant human interferon-γ (rhIFNγ, […]), recombinant human tumor necrosis factor-α (rhTNFα, 10 ng/ml), or recombinant human interleukin-17 (rhIL-17,10 ng/ml) (Peprotech, Rocky Hill, N.J.) for 0, 0.5, 1, 2, 6, 8, 12, 24, 48, or 72 hours in serum-free medium.
mRNA was isolated from FLS (3 wells of a 6-well plate) using the RNAeasy Kit and Qiacube (Qiagen, Venlo, Netherlands). cDNA was prepared using a High Capacity cDNA Kit (Life Technologies, Carlsbad, Calif.). Quantitative reverse transcription polymerase chain reaction (qRT-PCR) was done using TaqMan Gene Expression Assays on a 7500 Real Time PCR System (Life Technologies, Carlsbad, Calif.).
CD13 is present at much higher levels in RA synovial fluid compared to OA. Cultured RA and OA FLS, however, expressed similar amounts of CD13 (10). One possible explanation for this observation is that the pro-inflammatory cytokines in the RA joint could contribute to upregulation of CD13 production by FLS. Cultured RA FLS were treated with IFNγ, TNFα, or IL-17 over a time course from 0 to 72 hours. […] Data shown are a ratio of cytokine-treated FLS CD13 mRNA to untreated FLS CD13 mRNA at the same time point.

RA FLS [4] = test: ELISA for the secretion of CD13 from RA FLS incubated with TIMPs; conditions: 0.6 μg/ml, 48 hours, FLS from 3 RA patients
Experimental: To determine the role of tissue inhibitors of metalloproteinases (TIMPs) in the secretion of CD13, RA FLS (10 aliquots of 10^5, or 10^6, cells) were plated in 6-well plates in RPMI with 10% FBS. When RA FLS became 85% confluent, media was switched to RPMI containing 0.1% FBS. RA FLS were incubated with TIMP-1, TIMP-2 or both for 48 hours. ELISA was performed to determine the levels of soluble CD13 in the conditioned media. Conditioned media (100 μl/well) was added to 96-well plates (Thermo Scientific, USA) for 2 hours at room temperature. After blocking, anti-CD13 antibody, WM15, (10 μg/ml, BioLegend) was added for 2 hours at 37° C. Anti-mouse IgG HRP-linked antibody (1:1000) was added for 1 hour. After adding the TMB substrate solution (BD Biosciences) and stop solution (2N H2SO4), the optical density (OD) was measured at 450 nm by a microplate reader (BIO-TEK, USA). We used FLS from three different RA patients. Both inhibitors were used at 0.6 μg/ml. These concentrations are recommended by the manufacture to inhibit matrix metalloproteinases (MMPs).

**Q.** `CC(C)C[C@H](NC(=O)[C@@H](O)[C@H](N)Cc1ccccc1)C(=O)O` [Bestatin, bestatin] was tested. Which “RA FLS migration in wound healing assay (relative wound density, ratio to untreated)” value (RA FLS [1]) did it give?
**A.** The value was “not found to inhibit FLS migration”.

**Q.** What about the “RA FLS cell growth (change in confluence, ratio to untreated FLS)” value (RA FLS [2]) of the same molecule?
**A.** Its value is “significant slowing of cell growth”.

**Q.** What does the source list for `CNC(=O)[C@H](Cc1c[nH]c2ccccc12)NC(=O)[C@@H](CC(=O)NO)CC(C)C` [GM6001]?
**A.** CD13 in lysates of GM6001-treated cells (FLS): significantly increased; release of CD13 into the culture supernatant (in words) (FLS; serum-free media with 1 ng/ml IL-1 and 10 ng/ml TNFα): prevented the release of CD13; CD13 in FLS cell lysates (change, in words) (RA FLS [3]; FLS cultures, serum-free media with protease inhibitor): No significant difference; reduction of CD13 protein found in the supernatant (RA FLS [3]; FLS cultures, serum-free media, GM6001 25 μM, CD13 ELISA): 93.62±4.78%; block of CD13 release from FLS (in words) (RA FLS [3]; protease inhibitors at established working concentrations): found to block CD13 release

**Q.** Which “increase in CD13 released” value (RA FLS [3]; FLS cultures, serum-free media, Leupeptin 10 μM, supernatant) does the source give for `CC(=O)N[C@@H](CC(C)C)C(=O)N[C@@H](CC(C)C)C(=O)N[C@H](C=O)CCCNC(=N)N` [Leupeptin, leupeptin] here?
**A.** The value was 48.40±14.29%.

**Q.** `CCCCC[C@H](CC(=O)NO)C(=O)N[C@H](C(=O)N1CCC[C@H]1CO)C(C)C` [actinonin] was tested. Which “RA FLS migration in wound healing assay (relative wound density, ratio to untreated)” value (RA FLS [1]) did it give?
**A.** The value was “significant decrease”.

**Q.** And the “RA FLS cell growth (change in confluence, ratio to untreated FLS)” value (RA FLS [2])?
**A.** Its value is “strongest inhibitor of cell proliferation”.

**Q.** And the “RA FLS cell growth (change in confluence, ratio to untreated FLS)” value (RA FLS [2]; listed as Actinonin)?
**A.** Its value is “significant slowing of cell growth”.

**Q.** With aprotinin as the molecule, how does the “increase in CD13 expression in FLS cell lysates” value (RA FLS [3]; Aprotinin 100 nM) read?
**A.** The value was 22.17±6.18%.

**Q.** Which results are given for recombinant human interferon-γ [IFNγ]?
**A.** CD13 mRNA in RA FLS, ratio to untreated FLS (in words) (CD13 mRNA): upregulated; time of peak CD13 mRNA expression (CD13 mRNA): around 48 hours

**Q.** “recombinant human interleukin-17 [IL-17]” was tested. Which “CD13 mRNA in RA FLS, ratio to untreated FLS (in words)” value (CD13 mRNA) did it give?
**A.** The value was “upregulated”.

**Q.** What about the “time of peak CD13 mRNA expression” value (CD13 mRNA) of the same molecule?
**A.** Its value is “around 48 hours”.

**Q.** For “recombinant human tumor necrosis factor-α [TNFα]”, which “CD13 mRNA in RA FLS, ratio to untreated FLS (in words)” value (CD13 mRNA) is on record?
**A.** The value was “upregulated”.

**Q.** And the “time of peak CD13 mRNA expression” value (CD13 mRNA)?
**A.** The value was “around 48 hours”.

**Q.** How did the “CD13 secretion in conditioned media (OD, ELISA)” value (RA FLS [4]) turn out when “tissue inhibitor of metalloproteinase 1 [TIMP-1]” was run?
**A.** The value was “decrease was not observed”.

**Q.** With “tissue inhibitor of metalloproteinase 2 [TIMP-2]” as the molecule, how does the “CD13 secretion in conditioned media (OD, ELISA)” value (RA FLS [4]) read?
**A.** The value was “significant decrease”.
